Assay results as given in patent publication US20260347372A1, “SMALL MOLECULE INHIBITORS OF KRAS G12D MUTANT” (MERCK SHARP & DOHME LLC, priority 2023, published 2026).
pIC50: −log10 of the molar value.

How the values were obtained:
Assay type in all cases: biochemical
KRAS G12D = KRAS G12D (Homo sapiens, UniProt P01116, G12D); assay: SOS-catalyzed nucleotide exchange assay, KRAS G12D (Procedure B; Example 14); design: KRAS G12D (amino acids 1-169, N-terminal His-tag); made in house; host or cells: E. coli; conditions: 1 hour compound incubation, SOS1 and GMPPNP 30 minutes, read-out: KRAS G12D GNE IC50
KRAS G12D, sequence (P01116 with tags, fused parts or gaps isoform P01116-2 G12D): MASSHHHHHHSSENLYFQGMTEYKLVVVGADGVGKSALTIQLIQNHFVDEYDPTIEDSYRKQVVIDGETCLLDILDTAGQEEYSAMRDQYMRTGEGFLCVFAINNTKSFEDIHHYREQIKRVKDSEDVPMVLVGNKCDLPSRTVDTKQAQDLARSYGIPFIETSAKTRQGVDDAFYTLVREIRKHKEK
Method: (§1) Procedure for SOS-Catalyzed Nucleotide Exchange Assay for KRAS-G12C/D/V/WT (Procedure B)
(§2) Recombinant KRAS G12C (amino acids 1-169, SEQ ID NO:9), KRAS G12D (amino acids 1-169, SEQ ID NO:10), KRAS G12V (amino acids 1-169, SEQ ID NO:11), KRAS WT (amino acids 1-169, SEQ ID NO:12) and SOS1 (amino acids 564-1049, SEQ ID NO:13) proteins were expressed in E. coli and purified by affinity chromatography. To prepare each BODIPY™ FL GDP-bound KRAS protein, 50 μM KRAS proteins were incubated with 0.5 mM BODIPY™ FL GDP (Invitrogen, G22360) in a loading buffer (20 mM Tris-HCl pH 7.5, 50 mM NaCl, 1 mM DTT and 2.5 mM EDTA) for 1 hour on ice. After the incubation, MgCl2 was added to a final concentration of 10 mM, followed by an incubation at room temperature for 30 minutes. The mixtures were allowed to pass through a NAP-5 column to remove free nucleotides and purified BODIPY™ FL GDP-bound KRAS G12C, G12D, G12V and WT proteins were used for compound evaluation.
(§3) The inhibitory activity of compounds on recombinant KRAS is measured by the displacement of the bound BODIPY™ GDP. […] Displacement of BODIPY™ FL GDP by Guanosine-5′-[(β,γ)-imido]triphosphate, Tetralithium salt (GMPPNP) was measured by calculating the ratio of fluorescence intensities of BODIPY™ FL before and after the exchange reaction. […] Dose response curves were analyzed using a 4-parameter logistic model to calculate IC50 values. […]

KRAS G12V = KRAS G12V (Homo sapiens, UniProt P01116, G12V); assay: SOS-catalyzed nucleotide exchange assay, KRAS G12V (Procedure B; Example 14); design: KRAS G12V (amino acids 1-169, N-terminal His-tag); made in house; host or cells: E. coli; conditions: 1 hour compound incubation, SOS1 and GMPPNP 30 minutes, read-out: KRAS G12V GNE IC50
KRAS G12V, sequence (P01116 with tags, fused parts or gaps isoform P01116-2 G12V): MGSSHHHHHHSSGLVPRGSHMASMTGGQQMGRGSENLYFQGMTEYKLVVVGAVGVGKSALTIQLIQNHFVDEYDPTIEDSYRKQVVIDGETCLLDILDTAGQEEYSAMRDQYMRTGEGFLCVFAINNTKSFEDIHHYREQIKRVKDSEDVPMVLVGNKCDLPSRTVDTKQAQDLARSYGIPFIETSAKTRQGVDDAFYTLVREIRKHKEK
Method: as §1, §2, §3

KRAS G12C = target: T1, KRAS G12C (Homo sapiens, UniProt P01116, G12C); assay: SOS-catalyzed nucleotide exchange assay, KRAS G12C (Procedure B; Example 14); conditions: 1 hour compound incubation, SOS1 and GMPPNP 30 minutes, read-out: KRAS G12C GNE IC50
T1 construct: KRAS G12C (amino acids 1-169, N-terminal His-tag); made in house; host or cells: E. coli
T1 sequence (P01116 with tags, fused parts or gaps isoform P01116-2 G12C): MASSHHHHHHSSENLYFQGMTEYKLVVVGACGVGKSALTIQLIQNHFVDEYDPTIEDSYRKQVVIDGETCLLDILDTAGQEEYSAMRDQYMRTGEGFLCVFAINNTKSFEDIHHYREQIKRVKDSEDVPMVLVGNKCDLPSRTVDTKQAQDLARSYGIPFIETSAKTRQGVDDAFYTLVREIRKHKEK
Method: as §1, §2, §3

KRAS WT = KRAS WT (Homo sapiens, UniProt P01116); assay: SOS-catalyzed nucleotide exchange assay, KRAS WT (Procedure B; Example 14); design: KRAS WT (amino acids 1-169, N-terminal His-tag); made in house; host or cells: E. coli; conditions: 1 hour compound incubation, SOS1 and GMPPNP 30 minutes, read-out: KRAS WT GNE IC50
KRAS WT, sequence (P01116 with tags, fused parts or gaps isoform P01116-2): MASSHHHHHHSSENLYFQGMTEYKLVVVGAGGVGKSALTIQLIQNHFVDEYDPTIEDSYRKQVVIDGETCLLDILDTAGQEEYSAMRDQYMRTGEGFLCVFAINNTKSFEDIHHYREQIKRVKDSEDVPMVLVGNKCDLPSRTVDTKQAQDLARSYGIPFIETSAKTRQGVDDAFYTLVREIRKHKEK
Method: as §1, §2, §3

- pIC50 (KRAS G12D): 6.96
- pIC50 (KRAS G12V): < 5.30
- pIC50 (KRAS G12C): < 5.30
- pIC50 (KRAS WT): < 5.30
Compound: FC(F)c1ccc2[nH]ncc2c1-c1nccc2c1sc1nc(OC[C@@]34CCCN3C[C@H](F)C4)nc(N3C[C@H]4CC[C@@H](C3)N4)c12 [Ex-14, 4-((1R,5S)-3,8-diazabicyclo[3.2.1]octan-3-yl)-8-(5-(difluoromethyl)-1H-indazol-4-yl)-2-(((2R,7aS)-2-fluorotetrahydro-1H-pyrrolizin-7a(5H)-yl)methoxy)pyrido[4′,3′:4,5]thieno [2,3-d]pyrimidine]
